# How the values were obtained:
# [1] = Reactivity/compatibility of PVP-I with other active ingredients
# external ear = details: in vivo; cited from earlier work
compound,measurement,setting,value
O=C(c1ccccc1)c1ccc2n1CCC2C(=O)O (stereo not drawn) [Ketorolac],consumption of the agent on reaction with PVP-I,[1]; mixed with PVP-I,completely consumed
"1-Vinyl-2-pyrrolidinone polymers, iodine complex [PVP-I]",available iodine in the PVP-I complex,"[1]; with Ketorolac, depending on the ratio between Ketorolac and PVP-I",reduced significantly
same,concentration known to be safe for use in the external ear (and inner ear through a ruptured tympanic membrane),external ear,"up to 10.0 % (w/w, aqueous)"

# — patent publication US20130089510A1, “OTIC COMPOSITIONS FOR THE TREATMENT OF INFECTIONS OF THE INTERNAL AND EXTERNAL EAR IN MAMMALS” (Foresight Biotherapeutics, Inc., priority 2008, published 2013)
